Reference: paper PMC8700709, “Cannabidiol Inhibits Tau Aggregation In Vitro” (Cells, 2021)

Target: T1, tau protein 1N/4R isoform (Homo sapiens, UniProt P10636)
T1 construct: gene MAPT; recombinant human His-tagged tau 1N/4R isoform, expressed in E. coli BL21(DE3)
Assay: intrinsic Tyr fluorescence quenching titration (Stern-Volmer/Hill; Kb at […] °C), Job's plot […]; supported by ThT aggregation assay, CD and AFM
Format: binding
Details: read-out: Kb×10^4(M^-1) (converted)

T1 sequence (P10636 1-412 isoform P10636-7): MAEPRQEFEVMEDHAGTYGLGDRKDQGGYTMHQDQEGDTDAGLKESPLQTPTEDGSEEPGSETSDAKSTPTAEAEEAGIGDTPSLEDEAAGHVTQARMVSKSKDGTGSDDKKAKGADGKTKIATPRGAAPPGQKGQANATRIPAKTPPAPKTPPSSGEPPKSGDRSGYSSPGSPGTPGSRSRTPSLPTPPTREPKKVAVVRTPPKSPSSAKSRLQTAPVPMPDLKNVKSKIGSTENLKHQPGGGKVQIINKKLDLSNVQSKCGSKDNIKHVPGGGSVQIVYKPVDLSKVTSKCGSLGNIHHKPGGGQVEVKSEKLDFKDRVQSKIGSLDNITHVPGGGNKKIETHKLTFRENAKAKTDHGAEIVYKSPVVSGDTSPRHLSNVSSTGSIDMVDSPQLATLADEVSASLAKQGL

C=C(C)[C@@H]1CCC(C)=C[C@H]1c1c(O)cc(CCCCC)cc1O [Cannabidiol] showed a Kd of 23.8 µM.
